Active and inactive are the calls of the source. The calls are words filed in the database; no cut-off is given here.
Assays:
[1] = molecular target: T1, Serine/threonine-protein kinase 3 (Homo sapiens) (UniProt Q13188); assay: Inhibition of MST2 Lys1 labeling site in human Huh-7 cells at 1 uM by KiNativ Profiling analysis relative to control; format: cell-based
T1 sequence (whole entry): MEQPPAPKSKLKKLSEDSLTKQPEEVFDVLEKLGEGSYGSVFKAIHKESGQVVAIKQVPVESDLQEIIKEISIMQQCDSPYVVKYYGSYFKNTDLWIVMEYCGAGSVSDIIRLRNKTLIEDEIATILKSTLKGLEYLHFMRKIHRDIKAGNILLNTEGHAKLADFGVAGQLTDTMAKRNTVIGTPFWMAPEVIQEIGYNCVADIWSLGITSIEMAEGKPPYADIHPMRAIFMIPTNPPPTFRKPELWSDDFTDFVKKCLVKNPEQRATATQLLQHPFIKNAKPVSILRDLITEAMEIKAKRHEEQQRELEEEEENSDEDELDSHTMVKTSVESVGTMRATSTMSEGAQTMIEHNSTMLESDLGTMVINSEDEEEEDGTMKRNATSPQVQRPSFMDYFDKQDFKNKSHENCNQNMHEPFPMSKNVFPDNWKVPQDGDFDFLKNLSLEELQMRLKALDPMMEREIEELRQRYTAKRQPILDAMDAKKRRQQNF

[2] = molecular target: Serine/threonine-protein kinase B-raf (Homo sapiens, UniProt P15056); assay: Inhibition of BRAF Lys2 labeling site in human A-375 cells at 0.05 uM by KiNativ Profiling analysis relative to control; format: cell-based
[3] = molecular target: T2, Dual specificity mitogen-activated protein kinase kinase 4 (Homo sapiens) (UniProt P45985); assay: Inhibition of MEK4 (unknown origin) at 1 uM by Ambit Kinomescan binding assay relative to control; values are per cent of control
T2 sequence (whole entry): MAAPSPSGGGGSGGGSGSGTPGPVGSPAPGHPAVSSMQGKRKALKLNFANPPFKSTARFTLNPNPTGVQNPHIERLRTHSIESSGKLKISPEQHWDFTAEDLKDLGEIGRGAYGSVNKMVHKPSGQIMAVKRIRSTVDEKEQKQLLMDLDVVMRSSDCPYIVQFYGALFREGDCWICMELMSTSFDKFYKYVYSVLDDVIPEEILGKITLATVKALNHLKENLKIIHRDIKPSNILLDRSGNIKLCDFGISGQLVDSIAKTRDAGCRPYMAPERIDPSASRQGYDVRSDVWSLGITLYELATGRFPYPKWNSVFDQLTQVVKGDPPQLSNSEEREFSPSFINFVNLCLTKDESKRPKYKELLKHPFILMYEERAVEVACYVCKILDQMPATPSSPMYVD

[4] = molecular target: Tyrosine-protein kinase BTK (Homo sapiens) (UniProt Q06187); assay: Inhibition of BTK (unknown origin) at 10 uM by Ambit Kinomescan binding assay
[5] = molecular target: T3, Mitogen-activated protein kinase kinase kinase 6 (Homo sapiens) (UniProt O95382); assay: Inhibition of MAP3K6 Lys1 labeling site harbouring IAIKEIPER in human A-375 cells at 5 uM by KiNativ Profiling analysis relative to control; format: cell-based
T3 sequence (whole entry): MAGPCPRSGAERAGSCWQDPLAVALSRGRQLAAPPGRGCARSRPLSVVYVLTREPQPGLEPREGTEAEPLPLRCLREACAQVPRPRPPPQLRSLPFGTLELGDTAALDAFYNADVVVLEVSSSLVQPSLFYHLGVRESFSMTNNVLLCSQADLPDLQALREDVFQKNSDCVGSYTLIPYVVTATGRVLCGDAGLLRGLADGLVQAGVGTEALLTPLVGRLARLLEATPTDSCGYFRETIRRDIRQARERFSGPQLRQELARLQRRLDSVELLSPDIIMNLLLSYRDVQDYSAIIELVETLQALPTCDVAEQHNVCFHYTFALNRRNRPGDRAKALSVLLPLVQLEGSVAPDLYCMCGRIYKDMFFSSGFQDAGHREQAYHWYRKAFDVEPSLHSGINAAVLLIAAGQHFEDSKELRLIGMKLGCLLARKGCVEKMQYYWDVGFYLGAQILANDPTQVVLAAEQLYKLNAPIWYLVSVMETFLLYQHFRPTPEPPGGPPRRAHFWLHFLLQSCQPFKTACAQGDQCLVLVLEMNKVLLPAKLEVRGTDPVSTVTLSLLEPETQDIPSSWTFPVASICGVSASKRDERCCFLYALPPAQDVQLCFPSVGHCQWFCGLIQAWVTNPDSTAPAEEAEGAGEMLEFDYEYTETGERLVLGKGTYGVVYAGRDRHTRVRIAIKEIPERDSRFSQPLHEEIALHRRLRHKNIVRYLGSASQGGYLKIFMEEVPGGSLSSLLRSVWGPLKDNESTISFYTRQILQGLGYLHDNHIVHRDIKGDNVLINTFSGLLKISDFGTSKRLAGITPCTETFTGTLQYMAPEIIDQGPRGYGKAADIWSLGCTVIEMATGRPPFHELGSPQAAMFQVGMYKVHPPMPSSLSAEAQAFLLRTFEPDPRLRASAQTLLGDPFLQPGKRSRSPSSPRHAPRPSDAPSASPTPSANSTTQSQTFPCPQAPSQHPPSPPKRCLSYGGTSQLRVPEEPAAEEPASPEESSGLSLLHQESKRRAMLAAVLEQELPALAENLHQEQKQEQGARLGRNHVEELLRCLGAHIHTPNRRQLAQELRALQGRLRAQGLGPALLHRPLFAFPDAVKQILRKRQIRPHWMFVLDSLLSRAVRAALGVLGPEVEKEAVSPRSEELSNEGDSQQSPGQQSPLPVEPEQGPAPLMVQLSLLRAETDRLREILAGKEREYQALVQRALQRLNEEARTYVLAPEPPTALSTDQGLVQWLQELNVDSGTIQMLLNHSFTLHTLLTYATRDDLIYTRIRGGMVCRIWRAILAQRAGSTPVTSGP

[6] = molecular target: Mitogen-activated protein kinase kinase kinase 11 (Homo sapiens) (UniProt Q16584); assay: Inhibition of MLK3 K2 labeling site in human Huh-7 cells at 1 uM by KiNativ Profiling analysis relative to control; format: cell-based
Mitogen-activated protein kinase kinase kinase 11 (Homo sapiens), sequence (Q16584 whole entry, looked up): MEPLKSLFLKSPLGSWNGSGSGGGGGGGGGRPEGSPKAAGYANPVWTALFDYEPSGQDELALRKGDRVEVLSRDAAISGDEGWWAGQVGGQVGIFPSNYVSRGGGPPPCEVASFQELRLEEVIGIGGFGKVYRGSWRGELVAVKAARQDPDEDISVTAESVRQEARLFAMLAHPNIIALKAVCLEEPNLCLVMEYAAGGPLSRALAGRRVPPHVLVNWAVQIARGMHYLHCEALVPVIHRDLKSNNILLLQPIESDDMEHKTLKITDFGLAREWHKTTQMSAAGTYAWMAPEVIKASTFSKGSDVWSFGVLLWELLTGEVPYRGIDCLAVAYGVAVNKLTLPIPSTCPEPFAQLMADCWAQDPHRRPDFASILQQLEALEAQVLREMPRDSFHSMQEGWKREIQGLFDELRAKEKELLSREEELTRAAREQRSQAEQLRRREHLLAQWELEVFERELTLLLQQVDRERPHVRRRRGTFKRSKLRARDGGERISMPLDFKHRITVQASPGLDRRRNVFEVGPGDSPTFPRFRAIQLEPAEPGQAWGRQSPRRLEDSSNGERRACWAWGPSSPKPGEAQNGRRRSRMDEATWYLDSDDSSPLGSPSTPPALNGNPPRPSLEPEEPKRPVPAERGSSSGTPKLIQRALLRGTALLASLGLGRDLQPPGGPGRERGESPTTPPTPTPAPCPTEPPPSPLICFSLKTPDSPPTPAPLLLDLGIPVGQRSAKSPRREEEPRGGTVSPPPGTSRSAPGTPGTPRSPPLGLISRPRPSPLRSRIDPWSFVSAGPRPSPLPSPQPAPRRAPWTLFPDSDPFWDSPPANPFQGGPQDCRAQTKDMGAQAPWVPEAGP

Serine/threonine-protein kinase B-raf, sequence (P15056 whole entry): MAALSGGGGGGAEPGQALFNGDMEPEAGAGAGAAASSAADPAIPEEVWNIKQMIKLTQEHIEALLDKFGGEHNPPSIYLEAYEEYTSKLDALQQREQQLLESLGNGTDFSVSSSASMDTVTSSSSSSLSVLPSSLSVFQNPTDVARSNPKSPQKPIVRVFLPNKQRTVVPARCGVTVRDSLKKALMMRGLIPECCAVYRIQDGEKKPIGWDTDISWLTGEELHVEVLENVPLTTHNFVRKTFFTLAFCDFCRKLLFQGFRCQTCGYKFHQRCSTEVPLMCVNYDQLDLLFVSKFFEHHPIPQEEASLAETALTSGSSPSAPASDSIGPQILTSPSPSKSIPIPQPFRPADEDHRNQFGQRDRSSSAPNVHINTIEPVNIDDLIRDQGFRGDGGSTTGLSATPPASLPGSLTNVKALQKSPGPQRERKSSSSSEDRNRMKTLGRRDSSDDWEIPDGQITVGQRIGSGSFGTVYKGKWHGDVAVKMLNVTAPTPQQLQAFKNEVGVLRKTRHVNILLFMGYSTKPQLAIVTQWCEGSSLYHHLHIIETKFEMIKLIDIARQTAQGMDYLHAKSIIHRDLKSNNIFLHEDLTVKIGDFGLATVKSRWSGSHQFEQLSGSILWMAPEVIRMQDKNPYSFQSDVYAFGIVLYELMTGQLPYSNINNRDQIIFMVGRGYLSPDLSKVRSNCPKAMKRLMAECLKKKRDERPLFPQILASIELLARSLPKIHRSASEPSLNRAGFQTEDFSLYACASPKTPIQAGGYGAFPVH
Tyrosine-protein kinase BTK (Homo sapiens), sequence (Q06187 whole entry): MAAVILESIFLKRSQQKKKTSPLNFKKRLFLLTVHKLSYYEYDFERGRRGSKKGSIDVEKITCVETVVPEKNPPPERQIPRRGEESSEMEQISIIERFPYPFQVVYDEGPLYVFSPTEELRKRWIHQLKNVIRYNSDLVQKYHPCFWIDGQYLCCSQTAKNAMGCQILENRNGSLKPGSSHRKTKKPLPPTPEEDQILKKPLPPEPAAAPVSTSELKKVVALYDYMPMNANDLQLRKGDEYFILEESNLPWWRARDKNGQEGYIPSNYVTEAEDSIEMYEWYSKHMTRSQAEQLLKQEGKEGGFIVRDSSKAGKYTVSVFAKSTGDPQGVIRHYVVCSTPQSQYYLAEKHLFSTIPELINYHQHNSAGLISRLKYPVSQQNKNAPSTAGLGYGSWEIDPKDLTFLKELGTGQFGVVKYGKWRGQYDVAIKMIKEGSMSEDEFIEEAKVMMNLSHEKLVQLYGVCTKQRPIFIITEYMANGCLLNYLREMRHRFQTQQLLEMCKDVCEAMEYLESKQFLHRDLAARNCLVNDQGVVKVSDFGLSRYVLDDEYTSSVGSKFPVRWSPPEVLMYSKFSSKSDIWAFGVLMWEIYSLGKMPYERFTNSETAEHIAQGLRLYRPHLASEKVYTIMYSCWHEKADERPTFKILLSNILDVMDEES

For `CNc1cc(Oc2cc(C(=O)Nc3cc(N4CCN(C)CC4)cc(C(F)(F)F)c3)ccc2C)ncn1`, the inhibition [1] was 5.3%.

For `CCN1CCN(Cc2ccc(NC(=O)c3ccc(C)c(/C=C/c4cnc5[nH]ccc5c4OC)c3)cc2C(F)(F)F)CC1`, the inhibition [2] was 29.6% and the residual activity [3] was 100%.

With `CCN1CCN(Cc2ccc(NC(=O)c3ccc(C)c(Oc4ccnc5[nH]ccc45)c3)cc2C(F)(F)F)CC1` the inhibition [4] was “inactive”, the inhibition [5] was -0.6% and the inhibition [6] was -1.6%.

— ChEMBL document CHEMBL5696442, “Discovery of type II inhibitors of TGFβ-activated kinase 1 (TAK1) and mitogen-activated protein kinase kinase kinase kinase 2 (MAP4K2)” (J Med Chem, 2015)
